Assay results as given in ChEMBL document CHEMBL2413045, “Synthesis, self-aggregation and biological properties of alkylphosphocholine and alkylphosphohomocholine derivatives of cetyltrimethylammonium bromide, cetylpyridinium bromide, benzalkonium bromide (C16) and benzethonium chloride” (Eur J Med Chem, 2013).
Converted amounts (≈) assume the structure as drawn.

Key:
Candida albicans [1] = experiment: microbe, parasite or virus in culture; format: functional; settings: ATCC 60193, 48 h
Description: (§1) Antimycotic activity against Candida albicans ATCC 60193 after 48 hrs by NCCLS M-27 microdilution assay

Acanthamoeba lugdunensis [2] = experiment: Amoebicidal activity against Acanthamoeba lugdunensis clinical isolate AcaVNAK02 assessed as minimum trophocidal concentration after 48 hrs by trypan blue exclusion assay; format: functional; settings: clinical isolate AcaVNAK02, 48 h
MCF7 [3] = experiment: Cytotoxicity against human MCF7 cells after 72 hrs by MTT assay; format: functional, cell-based; settings: MCF7, 72 h
MDA-MB-231 = experiment: Cytotoxicity against human MDA-MB-231 cells after 72 hrs by MTT assay; format: functional, cell-based; settings: MDA-MB-231, 72 h
Acanthamoeba quina [4] = experiment: Amoebicidal activity against Acanthamoeba quina clinical isolate AcaVNAK03 assessed as minimum trophocidal concentration after 48 hrs by trypan blue exclusion assay; format: functional; settings: clinical isolate AcaVNAK03, 48 h
CCRF-CEM = experiment: Cytotoxicity against human CCRF-CEM cells after 72 hrs by MTT assay; format: functional, cell-based
HeLa = experiment: Cytotoxicity against human HeLa cells after 72 hrs by MTT assay; format: functional, cell-based
HUVEC = experiment: Cytotoxicity against HUVEC after 72 hrs by MTT assay; format: ADME, cell-based; settings: Homo sapiens
A549 [5] = experiment: Cytotoxicity against human A549 cells after 72 hrs by MTT assay; format: functional, cell-based; settings: A549, 72 h
Acanthamoeba quina [6] = settings: clinical isolate AcaVNAK03
Candida albicans [7] = settings: ATCC 60193
Description: as §1

Acanthamoeba lugdunensis [8] = settings: clinical isolate AcaVNAK02
MCF7 [9] = experiment: Selectivity index, ratio of IC50 for HUVEC to IC50 for human MCF7 cells
A549 [10] = experiment: Selectivity index, ratio of IC50 for HUVEC to IC50 for human A549 cells
Candida albicans [11] = experiment: Ratio of cetylpyridinium bromide MIC to compound MIC for Candida albicans ATCC 60193; format: functional

Compound | MIC (Candida albicans [1]) [µM] | MTC (Acanthamoeba lugdunensis [2]) [µM] | IC50 (MCF7 [3]) [µM] | IC50 (MDA-MB-231) [µM] | MTC (Acanthamoeba quina [4]) [µM] | IC50 (CCRF-CEM) [µM] | IC50 (HeLa) [µM] | IC50 (HUVEC) [µM] | IC50 (A549 [5]) [µM] | MIC (Acanthamoeba quina [6]) [µM] | MIC (Candida albicans [7]) [µM] | MIC (Acanthamoeba lugdunensis [8]) [µM] | Ratio IC50 (MCF7 [9]) | Ratio IC50 (A549 [10]) | Ratio (Candida albicans [11])
CCCCCCCCCCCCCCCCOP(=O)([O-])OCC[N+](C)(C)Cc1ccccc1 | 8.1 (≈ 3.92 µg/mL) | > 500 | 76 | 44.3 | > 500 | 13.8 | 55.7 | > 100 | 73.2 | – | – | – | – | – | –
CCCCCCCCCCCCCCCCOP(=O)([O-])OCCC[n+]1ccccc1 | 2.1 (≈ 0.927 µg/mL) | 250 | 50.4 | 59.9 | 15.6 | 34.6 | 74.7 | > 100 | 61.6 | – | – | – | – | – | –
CC(C)(C)CC(C)(C)c1ccc(OCCOP(=O)([O-])OCCC[N+](C)(C)Cc2ccccc2)cc1 | > 100 | 250 | > 100 | > 100 | 125 | > 100 | > 100 | > 100 | > 100 | – | – | – | – | – | –
Cetyltrimethylammonium bromide | – | – | – | – | – | – | – | – | – | 15.6 | 22 | 15.6 | – | – | –
CCCCCCCCCCCCCCCCOP(=O)([O-])OCC[n+]1ccccc1 | 4 (≈ 1.71 µg/mL) | 62.5 | 8.1 | 45.8 | 62.5 | 22.9 | 52.1 | 94 | 9.9 | – | – | – | >10 | – | –
CCCCCCCCCCCCCCCCOP(=O)([O-])OCC[N+](C)(C)C [MILTEFOSINE] | 2.2 (≈ 0.897 µg/mL) | 250 | 18.9 | 34.8 | 125 | 20.7 | 74.4 | > 100 | 8.6 | – | – | – | – | >10 | –
CCCCCCCCCCCCCCCCOP(=O)([O-])OCCC[N+](C)(C)C | 18.2 (≈ 7.67 µg/mL) | 125 | 45.2 | 61.7 | 62.5 | 6.2 | 84.4 | > 100 | 41.5 | – | – | – | – | – | –
CC(C)(C)CC(C)(C)c1ccc(OCCOP(=O)([O-])OCC[N+](C)(C)Cc2ccccc2)cc1 | > 100 | 250 | > 100 | > 100 | 500 | > 100 | > 100 | > 100 | > 100 | – | – | – | – | – | –
CCCCCCCCCCCCCCCCOP(=O)([O-])OCCC[N+](C)(C)Cc1ccccc1 | 7.9 (≈ 3.93 µg/mL) | 125 | 57.6 | 43.7 | 250 | 62.2 | 62.1 | > 100 | 57.6 | – | – | – | – | – | –
CCCCCCCCCCCCCCCC[N+](C)(C)Cc1ccccc1.[Br-] | 4.5 | 15.6 | 1 | 3.5 | 15.6 | 0.9 | 2.8 | 7.5 | 0.63 | – | – | – | – | >10 | 2
